Columns and labels:
[1] = test system: hyperlipidemia animal model of B6-hPCSK9 transgenic mice; assay: In vivo pharmacodynamic study in hyperlipidemia model of B6-hPCSK9 transgenic mice (LDL-C, TC, plasma PCSK9); design: species or system B6-hPCSK9 transgenic C57 mice; conditions: PO administration, Day 14, B6-hPCSK9 transgenic mice on high-fat feed, normalized to vehicle group
Method: 1. Experimental objective: The compounds of the present disclosure were evaluated for in vivo pharmacodynamics in a hyperlipidemia animal model of B6-hPCSK9 transgenic mice.
2.1 Animals: B6-hPCSK9 transgenic C57 mice, 6-8 weeks old, male, purchased from Jiangsu GemPharmatech Co., Ltd.
2.2 Animal model: After delivery to a barrier system, the animals were given one week for acclimatization and began to feed on the high-fat feed. The body weight and feed weight were weighed once a week, and the body weight and food intake thereof were recorded.
2.3 Grouping and administration • a. The animals were grouped by a random grouping method. • c. According to the grouping results, administration with the test drug was started (mode of administration: oral administration; administration volume: 10 mL/kg; frequency of administration: once/day or single administration; administration cycle: 21 days; vehicle: 10% Solutol HS 15/90% Saline). Test drug: Compounds of the present disclosure, made in house. • d. After the test drug was administered, the body weight and feed weight were weighed twice a week and blood was taken once a week. • e. The data was processed with software such as Excel. […] PCSK9 in plasma was detected by ELISA.

PCSK9 protein = molecular target: T1, PCSK9 protein (Homo sapiens, UniProt Q8NBP7); assay: Binding ability to PCSK9 protein (HTRF); conditions: PCSK9-His, Alexa Fluor 647 probe compound
T1 construct: purchased Sino biology (Sino Biological) 29698-H08H
T1 sequence (Q8NBP7 153-692): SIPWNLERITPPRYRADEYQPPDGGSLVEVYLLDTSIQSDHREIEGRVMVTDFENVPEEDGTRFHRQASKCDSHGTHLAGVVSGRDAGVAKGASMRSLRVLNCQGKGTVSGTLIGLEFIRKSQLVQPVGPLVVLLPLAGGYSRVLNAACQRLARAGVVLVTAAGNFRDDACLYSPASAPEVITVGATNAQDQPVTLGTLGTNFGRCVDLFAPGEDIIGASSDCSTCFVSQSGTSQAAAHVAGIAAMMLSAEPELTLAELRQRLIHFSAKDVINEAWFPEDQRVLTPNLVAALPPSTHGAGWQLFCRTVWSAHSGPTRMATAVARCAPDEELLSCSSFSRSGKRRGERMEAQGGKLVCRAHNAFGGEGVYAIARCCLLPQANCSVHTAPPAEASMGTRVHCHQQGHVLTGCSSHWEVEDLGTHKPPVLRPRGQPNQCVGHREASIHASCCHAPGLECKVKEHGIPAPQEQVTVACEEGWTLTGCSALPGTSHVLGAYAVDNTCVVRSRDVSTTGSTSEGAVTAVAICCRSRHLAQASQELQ
Method: 1. Experimental objective: To detect the action of compounds to bind PCSK9 protein by an HTRF method.
3. Experimental data processing method: Four-parameter log(inhibitor) vs. response—Variable slope (four parameters) in XLit was used to perform non-linear fitting of the compound concentration and the corresponding inhibition rate, and IC50 was calculated.

[2] = In vitro metabolic stability in human liver microsomes; type: in vitro ADME; conditions: pH 7.4
Method: 1. Experimental objective: The purpose of this experiment was to evaluate the metabolic stability of the compounds in phase I and partially phase II in mouse, rat and human liver microsomes, respectively.
2.1 Drug preparation: 10 mM stock solution of the compound of the present disclosure was prepared in DMSO (or other suitable solution) and stored in a −20° C. refrigerator for later use. The compound of the present disclosure was made in house.
2.2 Experimental steps • 1) Preparation of buffer: 4.01 mL of 1 M K2HPO4·3H2O (AR grade) and 0.99 mL of 1 M KH2PO4 (AR grade) were dissolved in ultrapure water and the volume was adjusted to 50 mL to prepare a phosphate buffer with a final concentration of 100 mM. • 2) Preparation of compound working solution: Preparation of compound working solution: 2 μL of the compound stock solution was added to 998 μL of phosphate buffer to a final concentration of 20 μM. According to the properties of the compound, the preparation proportions could be adjusted appropriately to adjust the final concentration. • 3) Preparation of liver microsome working solution: 156.3 μL of 20 mg/mL microsomes were diluted to 5 mL with 100 mM phosphate buffer, and the mixture was mixed well to reach a final concentration of 0.625 mg/mL. • 4) Preparation of NADPH and UDPGA: 33.3 mg of NADPH and 25.8 mg of UDPGA were weighed and added to 2 mL of 100 mM phosphate buffer to reach a final concentration of 20 mM. • 5) Preparation of pore-forming agent (Alamethicin): 1 mg of Alamethicin was weighed and added to 200 μL of methanol to prepare a 5 mg/mL solution. 10 μL of the solution was taken and added to 990 μL phosphate buffer (pH 7.4) to reach a final concentration of 50 μg/mL. • 6) Preparation of reaction stop solution: The internal standard was diluted with acetonitrile (or other suitable solution) to use as a stop solution and stored in a 2° C.-8° C. refrigerator. • 7) Incubation process: 400 μL of the prepared liver microsomes, 25 μL of the compound working solution (20 μM) and 25 μL of Alamethicin (50 μg/mL) were successively added to the 96-well plate, and the mixture was pre-incubated at 37° C. for 10 min. Then, 50 μL of prepared NADPH/UDPGA was added to start the reaction, and the mixture was incubated at 37° C. The total volume of the reaction system was 500 μL. The final contents of each component were as follows:
50 μL of samples were taken at 0, 5, 15, 30, 60 and 120 min, respectively, 200 μL of a cold stop solution containing the internal standard was added to stop the sample reaction, the mixture was centrifuged at 3500 rpm for 10 min, and the supernatant was taken and analyzed by LC-MS/MS.
Instruments: Shimadzu LC-20 AD; Chromatographic column: Phenomenex Gamin® C18 (50*4.6 mm, 5 μm particle size); mobile phase: A: 0.1% aqueous formic acid, B: acetonitrile; Elution gradient: 0.2-1.6 min, […], 3.0-3.1 min, 95% A to 5% A; Flow rate: 1.0 ml/min; Run time: 4.0 min; Injection volume: 5 μL.
Instruments: AP14000 liquid chromatography mass spectrometer, AB Sciex; Ion source: electrospray ionization source (ESI); Drying gas: N2, temperature 500° C.; Electrospray voltage: 5000 V; Detection mode: positive ion detection; Scanning mode: Reaction Monitoring (MRM) mode; Scanning time: 0.8401 s.
3. Data processing: The raw data were calculated according to the following formula: […]
The in vitro liver microsome intrinsic clearance rate (CLint) and liver intrinsic clearance rate (CLint,liver) were calculated by Ke.

[3] = test system: PCSK9 secreted by HepG2 cells; assay: Effect on the concentration of PCSK9 secreted by HepG2 cells (ELISA); type: cell-based; conditions: Homo sapiens, 48 hours, PCSK9 in culture medium by ELISA
In short: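 HepG2 cells treated with compound for 48 h at 37° C., 5% CO2. Secreted PCSK9 in medium quantified by sandwich ELISA (HRP detection, OD 450 nm) against a 0–10 ng/mL standard curve. Inhibition relative to control; IC50 fitted from concentration–inhibition data.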

[4] = Pharmacokinetic determination in mice (PO 5 mg/kg, IV 1 mg/kg); type: in vivo, C57BL/6J mice; conditions: male, C57BL/6J, mouse, plasma, C57 mice, PO administration, 5 mpk; for AUC(0-inf): read-out: Area under the curve AUC0-∞; for half-life: read-out: Half-life t1/2 (converted); for MRT: read-out: Mean residence time MRT; for Cmax: read-out: Plasma concentration Cmax; for Tmax: read-out: Time to peak tmax
In short: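 Fasted male C57BL/6J mice (n=3 per route) dosed PO 5 mg/kg in 10% Solutol HS15 or IV 1 mg/kg in 5% DMSO/10% Solutol HS15/85% PBS. Orbital blood sampled 0.083 (IV) to 24 h; plasma measured by LC-MS/MS, parameters by WinNonlin.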

Row | Compound | LDL-C change vs vehicle (%), Day 14 ([1]; 10 mpk) [%] | IC50 (PCSK9 protein) [nM] | half-life at 1 µM [2] [h] | microsomal CLint at 1 µM [2] [µL/min/mg] | IC50 [3] [nM] | AUC(0-inf) [4] [ng·h/mL] | half-life [4] [h] | MRT [4] [h] | Cmax [4] [ng/mL] | Tmax [4] [h] | LDL-C change vs vehicle (%), Day 14 ([1]; 6 mpk) [%]
1 | O=C1c2ccnn2CCN1c1cnc(N[C@H]2CC[C@H](Nc3nc4cc(C(F)(F)F)ccn4n3)C2)c(F)c1 [Example 212] | −60.08 |  |  |  |  |  |  |  |  |  | 
2 | O=c1ccccn1-c1cnc(N[C@H]2CC[C@H](Nc3nc4cc(F)ccn4n3)C2)c(F)c1 [Example 186, 5′-fluoro-6′-(((1S,3S)-3-((7-fluoro-[1,2,4]triazolo[1,5-a]pyridin-2-yl)amino)cyclopentyl)amino)-2H-[1,3′-bipyridine]-2-one] | −51.19 | 8.5 | 35.4 | 0.7 |  |  |  |  |  |  | 
3 | O=C1c2ncccc2CN1c1cnc(N[C@H]2CC[C@H](Nc3nc4cc(C(F)(F)F)ccn4n3)C2)c(F)c1 [Example 112, 6-(5-fluoro-6-(((1S,3S)-3-((7-(trifluoromethyl)-[1,2,4]triazolo[1,5-a]pyridin-2-yl)amino)cyclopentyl)amino)pyridin-3-yl)-5,6-dihydro-7H-pyrrolo[3,4-b]pyridin-7-one] | −38.14 | 8.3 |  |  | 6900 | 33800 | 2.2 | 4.7 | 5070 | 1 | 
4 | O=C1c2ncccc2CN1c1cnc(N[C@H]2CC[C@H](Nc3nc4cc(F)ccn4n3)C2)c(F)c1 [Example 164] |  | 7.2 | 15.6 | 1.48 |  |  |  |  |  |  | 
5 | O=C1c2cccnc2CN1c1ccc(N[C@H]2CC[C@H](Nc3nc4cc(C(F)(F)F)ccn4n3)C2)nc1 [Example 12, 6-(6-(((1S,3S)-3-((7-(trifluoromethyl)-[1,2,4]triazolo[1,5-a]pyridin-2-yl)amino)cyclopentyl)amino)pyridin-3-yl)-6,7-dihydro-5H-pyrrolo[3,4-b]pyridin-5-one] | −33.75 |  |  |  |  | 9510 | 2.9 | 2.8 | 4310 | 0.25 | 
6 | O=c1nc(O)c(F)cn1-c1ccc(N[C@H]2CC[C@H](Nc3nc4cc(C(F)(F)F)ccn4n3)C2)nc1 [Example 110] |  | 18.7 | 78.7 | 0.3 |  | 11300 | 3 | 2.6 | 2920 | 1 | 
7 | O=C1c2ccnn2CCN1c1cnc(N[C@H]2CC[C@H](Nc3nc4cc(F)ccn4n3)C2)c(F)c1 [Example 201] | −31.45 |  |  |  |  |  |  |  |  |  | 
8 | O=c1nc(O)ccn1-c1cnc(N[C@H]2CC[C@H](Nc3nc4cc(F)ccn4n3)C2)c(F)c1 [Example 188] | −47.11 |  | 12.6 | 1.8 |  |  |  |  |  |  | 
9 | O=C1c2ncc(F)cc2CN1c1cnc(N[C@H]2CC[C@H](Nc3nc4cc(OC(F)F)ccn4n3)C2)c(F)c1 [Example 154] | −35.66 |  |  |  | 5500 | 13300 | 2.5 | 3.7 | 2640 | 1 | 
10 | O=c1ccccn1-c1ccc(N[C@H]2CC[C@H](Nc3nc4cc(F)ccn4n3)C2)nc1 [compound 1, 6′-(((1S,3S)-3-((7-fluoro-[1,2,4]triazolo[1,5-a]pyridin-2-yl)amino)cyclopentyl)amino)-2H-[1,3′-bipyridine]-2-one, reference compound] |  |  |  |  |  |  |  |  |  |  | −31.52
11 | O=C1c2ccc(C(F)(F)F)nc2CN1c1cnc(N[C@H]2CC[C@H](Nc3nc4cc(OC(F)F)ccn4n3)C2)c(F)c1 [Example 159] |  | 16.8 | 20.1 | 1.15 |  | 76800 | 9.8 | 10.7 | 7660 | 2 | 
